Values quoted from earlier work as cited in patent US7612202B2, “Process for preparing temozolomide” (Chemagis, Ltd., priority 2005, dated 2009).
“Also recorded” adds a separate entry of the source.

Legend:
[1] = administered Temozolomide dose

For `Cn1nnc2c(C(N)=O)ncn2c1=O` [Temozolomide, 8-carbamoyl-3-methyl-imidazo[5,1-d]-1,2,3,5-tetrazin-4(3H)-one], the “stability at acidic pH” value (aqueous buffers, pH<5) is given as “stable”, the “stability at pH>7” value (aqueous buffers, pH>7) is given as “labile; also recorded: rapidly decomposes to MTIC” and the in vitro half-life (phosphate buffer at 37° C. and pH 7.4) is given as 1.9 h. For the same molecule, the “percentage of administered dose metabolized to TMA” value [1] was “about 2%”.
